The subject of assay [1] is MpGDH. Put plainly: Inhibitory effects of 1,10-phenanthroline on GDH activity. The format is biochemical, Mucor prainii NISL0103. How it is done:
(§1) The inhibitory effects of 1,10-phenanthroline on the activities of these flavin-bound GDHs were examined by the following method. According to the enzyme activity assay of Example 1, the enzyme activities when 1,10-phenanthroline was added at final concentrations of 1, 5, 10, 25, and 50 mM were determined to calculate the inhibitory rates relative to 0% of the inhibitory rate when no 1,10-phenanthroline was added.

Assay [2] deals with MjGDH. Described as above. The format is biochemical, Mucor javanicus NISL0111. How it is done: as §1
For assay [3], the system named is McGDH. The description is as above. The format is biochemical, Mucor circinelloides f. circinelloides NISL0117. The protocol:
as §1

Assay [4] relates to flavin-bound GDHs of the invention. Briefly: Inhibitory effects of 1,10-phenanthroline, summary. The format is biochemical, Mucor. The protocol: as §1

Consider `c1cnc2c(c1)ccc1cccnc12` [1,10-phenanthroline], for which the GDH inhibition rate in assay [1] (1,10-phenanthroline 1 mM) was determined as 3.72%; in assay [1] (1,10-phenanthroline 5 mM), 10.1%; in assay [1] (1,10-phenanthroline 10 mM) it was 23.9%; in assay [1] (1,10-phenanthroline 25 mM), 44.1%; in assay [1] (1,10-phenanthroline 50 mM), 68.6%; in assay [2] (1,10-phenanthroline 1 mM), 3.27%. The GDH inhibition rate in assay [2] (1,10-phenanthroline 5 mM) was 13.1%; in assay [2] (1,10-phenanthroline 10 mM), 23.5%; in assay [2] (1,10-phenanthroline 25 mM), 64.7%; in assay [2] (1,10-phenanthroline 50 mM), 88.9%; in assay [3] (1,10-phenanthroline 1 mM), 1.95%; in assay [3] (1,10-phenanthroline 5 mM) it was 8.23%. The GDH inhibition rate worked out at 12.8% in assay [3] (1,10-phenanthroline 10 mM), 36.2% in assay [3] (1,10-phenanthroline 25 mM) and 68.5% in assay [3] (1,10-phenanthroline 50 mM). For the same compound, the results for the inhibitory effects in assay [4] (1,10-phenanthroline 1 mM) and in assay [4] (1,10-phenanthroline 5 mM) were 2-4% and “about 10%”, respectively.
